{"source": "paper PMC5760734", "about": "“Development of an oral once-weekly drug delivery system for HIV antiretroviral therapy” (Nature Communications, 2018)", "key": {"[1]": {"test_system": "HIV", "set-up": "method as in ref 2–6 (a number printed in a supplementary file, which may have a reference list of its own: not looked up in the article's list)", "settings": "monotherapy or dual therapy with rilpivirine, after a two-year follow up; cited from earlier work"}, "[2]": {"test_system": "HIV reference strain NL4-3", "set-up": "method as in ref 46,55–57 (a number printed in a supplementary file, which may have a reference list of its own: not looked up in the article's list)", "settings": "wild-type virus; cited from earlier work"}, "[3]": {"set-up": "method as in ref 58 (a number printed in a supplementary file, which may have a reference list of its own: not looked up in the article's list)", "settings": "cited from earlier work"}, "[4]": {"experiment": "Drug stability at high temperature (150 °C, 2 h), HPLC", "assay_type": "physicochemical", "settings": "150 °C for 2 h", "description": "To determine the drug stability at high temperatures, the drug was weighed in a 20 mL glass vial, and placed in a convection oven at 150 °C for 2 h. Drug was dissolved in methanol, and the concentration was compared to that of an unheated standard of the same initial concentration via HPLC."}, "[5]": {"settings": "humans receiving the usual oral dose; stated by Reviewer 1, no reference; cited from earlier work"}, "[6]": {"experiment": "Plasma pharmacokinetics of immediate release and gastric resident dosage forms in pigs", "assay_type": "in vivo, Yorkshire pigs", "description": "All animal experiments were approved by the Committee on Animal Care at the Massachusetts Institute of Technology. In vivo pharmacokinetics were evaluated in an unblinded fashion in female Yorkshire pigs (50–95 kg) that were randomly assigned to the immediate release or sustained release groups. Animals were fed daily in the morning and in the evening with a diet consisting of pellets (Laboratory mini-pig growler diet, 5081), with a midday snack consisting of various fruits and vegetables. Specifically, the pellets were 5/32” x ¼” length, and consisted of ground oats, alfalfa meal, wheat middlings, soybean meal, dried beet pulp, salts and other micronutrients.\nTo determine the oral pharmacokinetics of immediate release dosage forms of DTG and CAB, 50 mg of DTG and 30 mg of CAB were weighed and filled into gelatine capsules. For RPV pharmacokinetics, RPV base was dissolved in poly(ethylene glycol) (molecular weight—400 Da) containing 10-fold molar excess of citric acid. The concentration of RPV base in this solution was 5 mg/mL and 5 mL of the solution was dosed in a gelatine capsule. […] To determine oral pharmacokinetics from gastric retentive dosage forms, the arms of dosage forms (2–3/pig containing 350 mg DTG, 175 mg RPV or 210 mg CAB) were folded into capsule shells immediately prior to dosing. […]. The capsules containing drug or dosage form were delivered into the intestine or stomach respectively. At various time points, blood samples (0.5 mL) were collected from a central line connected to the external jugular vein or from a mammary vein into […] Vacutainer gold top tubes (Becton, Dickinson and Co. USA). Plasma samples were separated from blood by centrifugation (1800g, 10 min at 4 °C) and were stored at −80 °C. Atropine can reduce gastric acid production and gastric motility which may affect the overall drug pharmacokinetics and the gastric retention of the dosage form. […]. Drug concentrations in the plasma were analysed using UPLC-MS/MS. Plasma samples (100 µL) were spiked with 200 µL acetonitrile solution of 250 µg/mL maraviroc (internal standard) to cause precipitation. Samples were vortexed and sonicated for 10–20 min and then centrifuged (21130g, 10 min). Two hundred microliters of solution were pipetted into a 96-well plate containing 200 µL of nanopure water. Finally, 2.5 μL was injected onto the UPLC–ESI–MS system for analysis.\nUPLC separation was carried out on a Waters® UPLC aligned with a Waters® Xevo–TQ-SMS mass spectrometer (Waters Ltd., UK). MassLynx® 4.1 software was used for data acquisition and analysis. Liquid chromatography separation was performed on an Acquity® UPLC CSH C18 (50 × 2.1 mm, 1.7 μm particle size) column at 50 °C. The mobile phase consisted of acetonitrile spiked with 0.1% formic acid and 10 mM ammonium formate solution. The mobile phase was flowed at a rate of 0.6 mL/min using a time and solvent gradient composition. The initial composition (100% aqueous) was held for 1 min, following which the composition was changed linearly to 20% organic phase over the next 0.25 min. The composition was then brought to 100% organic over 1.25 min, held for 0.5 min and finally shifted to the initial composition and held constant until the end of the run for column equilibration. The total run time was 4 min and sample injection volume was 2.5 μL. The mass spectrometer was operated in the multiple reaction monitoring (MRM) mode. Sample introduction and ionization was by electrospray ionization (ESI) in the positive ion mode. DTG, RPV and CAB were analysed at mass-to-charge ratios of […] respectively. Stock solutions of DTG, RPV, CAB, and an internal standard maraviroc were prepared in methanol at a concentration of 500 μg/mL. A ten-point calibration curve was prepared ranging from 2.5–5000 ng/mL. Quality control samples were prepared in a similar procedure using an independent stock solution at three concentrations (5, 50 and 500 ng/mL). […]"}, "[7]": {"settings": "immediate release formulation, pigs"}}, "data": [{"molecule": "C[C@@H]1CCO[C@H]2Cn3cc(C(=O)NCc4ccc(F)cc4F)c(=O)c(O)c3C(=O)N12", "note": "[DTG, dolutegravir]", "values": [{"measurement": "patients with plasma viremia levels of <50 copies/mL", "setting": "[1]", "value": "> 95", "unit": "% patients"}, {"measurement": "IC50", "setting": "[2]", "value": 70, "unit": "nM"}, {"measurement": "m (slope parameter of Hill curve)", "setting": "[2]", "value": 1.2}, {"measurement": "Half-life, τ1/2", "setting": "[3]", "value": 14, "unit": "h"}, {"measurement": "Cmax", "setting": "[3]; maximum plasma concentration at steady state, perfect adherence", "value": 8.75, "unit": "µM"}, {"measurement": "stability at elevated temperature", "setting": "[4]", "value": "stable"}, {"measurement": "usual Cmax in humans", "setting": "[5]", "value": 3700, "unit": "ng/mL"}, {"measurement": "Tmax", "setting": "[6]; female, Yorkshire, pig, plasma, oral, immediate release formulation, pigs, post-dose, read-out: time of maximum plasma concentration (converted)", "value": 6, "unit": "h"}, {"measurement": "mean peak plasma concentration relative to immediate release", "setting": "[6]; gastric resident system, pigs", "value": "comparable to that of the immediate release formulation"}, {"measurement": "time to mean peak plasma concentration", "setting": "[6]; gastric resident system, pigs", "value": "≤ 6", "unit": "h"}, {"measurement": "average (sustained) plasma drug concentrations throughout the week following dosing", "setting": "[6]; gastric resident system, pigs, n = 3", "value": "200 to 800", "unit": "ng/mL"}, {"measurement": "duration of sustained drug concentrations", "setting": "[6]; gastric resident system, single dose", "value": "up to 1 week"}, {"measurement": "day at or after which no drug was detected in plasma", "setting": "[6]; [7]", "value": 2, "unit": "days"}, {"measurement": "plasma drug concentrations on day 1", "setting": "[6]; [7]", "value": "low but detectable"}, {"measurement": "time to detectable plasma concentrations", "setting": "[6]; [7]", "value": "≤ 15", "unit": "min"}, {"measurement": "average maximum plasma concentration", "setting": "[6]; immediate release formulation, pigs, n = 3", "value": "~ 500 ng/mL"}]}]}
